Molecules are shown by their SMILES.

Consider one compound from patent US11571418B2, “Platinum compounds that inhibit constitutive STAT3 signaling and induce cell cycle arrest and apoptosis of malignant cells” (H. LEE MOFFITT CANCER CENTER AND RESEARCH INSTITUTE, INC., priority 2011, dated 2023).

Assay [1] concerns normal NIH 3T3 fibroblasts. Description: Ki67 proliferation index by immunohistochemistry. It is filed as cell-based, mouse. To be noted: no persistent Stat3 activity. The method, then:
FIGS. 5A and 5B. Evaluation for effects of PLATINUM-401 on cellular constitutive Stat3 activation and cell proliferation. Normal or malignant cells were treated with or without PLATINUM-401 and nuclear extracts were prepared for Stat3 DNA-binding activity assay with hSIE probe, or cells were processed for nuclear Ki67 immunohistochemistry. (FIG. 5A) EMSA analysis of Stat3 DNA-binding activity; (FIG. 5B) Graphical representations of quantified nuclear staining of Ki-67 proliferation index. Stat3:Stat3-DNA complexes in gels are labeled. The Ki-67 proliferation indexes were calculated as the percent positive tumor cells relative to the total number of cells. […]
Immunohistochemistry—The indirect peroxidase-antiperoxidase test was performed on cytospins prepared from cell lines (control and treated). […] The presence of Ki-67 nuclear staining was calculated as percent positive tumor cells in relation to the total number of cells.
The inventors further examined the biological effects of PLATINUM-401 and determined whether any changes might correlate with the inhibition of constitutively-active Stat3. […]
Changes in cell proliferation induced by treatment with PLATINUM-401 were assayed in terms of Ki67 proliferation index by immunohistochemistry. The presence of Ki-67 nuclear staining was calculated as the percent positive tumor cells in relation to the total number of cells.

The test system of another assay is pLucSRE. Description: c-fos promoter-driven luciferase reporter assay. To be noted: transient transfection in mouse fibroblasts. Format: cell-based. On the procedure: FIGS. 3A-3D. Inhibition of Stat3-mediated gene expression by PLATINUM-401. (FIG. 3A) and (FIG. 3B) v-Src-transformed mouse fibroblasts that stably express Stat3-dependent (NIH3T3/v-Src/pLucTKS3) and Stat3-independent (NIH3T3/v-Src/pRLSRE) luciferase reporters or β-galactosidase (β-gal), as well as normal mouse fibroblast (NIH3T3) transiently transfected with pLucTKS3, pGL2-VEGF-Luc, NFkB-Luc or pLucSRE together with or without v-Src were treated with or without PLATINUM-401 for 48 h. Cytosolic extracts were then prepared from cells for luciferase and […] activities measurements. […]
Cell proliferation and TUNEL assays—Proliferating cells were first treated with or without PLATINUM-401 for up to 48 h. A portion of cells were harvested for BrdU incorporation following the manufacturer's (BD Biosciences Pharmingen, San Diego, Calif.) instructions and analyzed by flow cytometry. Harvested cells were also analyzed for apoptosis via detection of TdT-mediated dUTP nick-end labeling (TUNEL) assay using Apoptosis Detection Systems Fluorescein according to the manufacturer's (Roche, Indianapolis, Ind.) instructions. […]
To further investigate the activities of PLATINUM-401, the inventors treated malignant cells and measured effects on Stat3 signaling. […]
(Reporter assays use an easily measured gene product as a stand-in for the process of interest.)

Consider `CC(O)CN1CCN(CC(C)O)CC1` (centres unmarked) [PLATINUM-401], for which the “proliferation (Ki67 index)” value in assay [1] is listed as “lack of effect”. Besides, the “induction of c-fos promoter-driven luciferase reporter activity” value with pLucSRE is given as “no inhibitory effects”.
